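Where inhibition never reached the appropriate level, the endpoint shown equals the highest concentration tested. Otherwise, values were interpolated linearly from a five-concentration, 48-hour dose response in 96-well plates. At the TGI there is no net growth.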
Assays:
Assay in all cases: NCI tumour cell line growth inhibition, 48 h
UO-31 renal = system: UO-31 renal
SK-OV-3 ovarian = system: SK-OV-3 ovarian
OVCAR-5 ovarian = system: OVCAR-5 ovarian
XF 498 CNS = system: XF 498 CNS
HCC-2998 colon = system: HCC-2998 colon
SK-MEL-5 melanoma = system: SK-MEL-5 melanoma
LXFL 529 NSCLC = system: LXFL 529 NSCLC
DLD-1 colon = system: DLD-1 colon
HOP-92 NSCLC = system: HOP-92 NSCLC
SNB-78 CNS = system: SNB-78 CNS
HCT-116 colon = system: HCT-116 colon
K-562 leukemia = system: K-562 leukemia
EKVX NSCLC = system: EKVX NSCLC
CCRF-CEM leukemia = system: CCRF-CEM leukemia
SF-295 CNS = system: SF-295 CNS
TK-10 renal = system: TK-10 renal
NCI-H522 lung = system: NCI-H522 lung
COLO 205 colon = system: COLO 205 colon
NCI-H460 lung = system: NCI-H460 lung
SR leukemia = system: SR leukemia
DMS 114 small cell lung = system: DMS 114 small cell lung
LOX IMVI melanoma = system: LOX IMVI melanoma
ACHN renal = system: ACHN renal
SK-MEL-28 melanoma = system: SK-MEL-28 melanoma
A549 NSCLC = system: A549 NSCLC
HOP-62 NSCLC = system: HOP-62 NSCLC
SF-539 CNS = system: SF-539 CNS
KM12 colon = system: KM12 colon
NCI-H226 lung = system: NCI-H226 lung
CAKI-1 renal = system: CAKI-1 renal
M14 melanoma = system: M14 melanoma
SW-620 colon = system: SW-620 colon
RXF-631 renal = system: RXF-631 renal
RPMI-8226 leukemia = system: RPMI-8226 leukemia
SK-MEL-2 melanoma = system: SK-MEL-2 melanoma
U251 CNS = system: U251 CNS
SNB-19 CNS = system: SNB-19 CNS
786-0 renal = system: 786-0 renal
MOLT-4 leukemia = system: MOLT-4 leukemia
HCT-15 colon = system: HCT-15 colon
HL-60(TB) leukemia = system: HL-60(TB) leukemia
RXF 393 renal = system: RXF 393 renal
OVCAR-4 ovarian = system: OVCAR-4 ovarian
SNB-75 CNS = system: SNB-75 CNS
MALME-3M melanoma = system: MALME-3M melanoma
SF-268 CNS = system: SF-268 CNS
NCI-H23 lung = system: NCI-H23 lung
IGROV1 ovarian = system: IGROV1 ovarian
HT29 colon = system: HT29 colon
UACC-257 melanoma = system: UACC-257 melanoma
UACC-62 melanoma = system: UACC-62 melanoma
DMS 273 small cell lung = system: DMS 273 small cell lung
M19-MEL melanoma = system: M19-MEL melanoma
SN12C renal = system: SN12C renal
KM20L2 colon = system: KM20L2 colon
OVCAR-8 ovarian = system: OVCAR-8 ovarian
OVCAR-3 ovarian = system: OVCAR-3 ovarian

SMILES: Nc1nnc(N)n1N
- TGI (UO-31 renal): > 100 µM
- TGI (SK-OV-3 ovarian): > 100 µM
- TGI (OVCAR-5 ovarian): > 100 µM
- TGI (XF 498 CNS): > 100 µM
- TGI (HCC-2998 colon): > 100 µM
- TGI (SK-MEL-5 melanoma): > 100 µM
- TGI (LXFL 529 NSCLC): > 100 µM
- TGI (DLD-1 colon): > 100 µM
- TGI (HOP-92 NSCLC): > 100 µM
- TGI (SNB-78 CNS): > 100 µM
- TGI (HCT-116 colon): > 100 µM
- TGI (K-562 leukemia): > 100 µM
- TGI (EKVX NSCLC): > 100 µM
- TGI (CCRF-CEM leukemia): > 100 µM
- TGI (SF-295 CNS): > 100 µM
- TGI (TK-10 renal): > 100 µM
- TGI (NCI-H522 lung): > 100 µM
- TGI (COLO 205 colon): > 100 µM
- TGI (NCI-H460 lung): > 100 µM
- TGI (SR leukemia): > 100 µM
- TGI (DMS 114 small cell lung): > 100 µM
- TGI (LOX IMVI melanoma): > 100 µM
- TGI (ACHN renal): > 100 µM
- TGI (SK-MEL-28 melanoma): > 100 µM
- TGI (A549 NSCLC): > 100 µM
- TGI (HOP-62 NSCLC): > 100 µM
- TGI (SF-539 CNS): > 100 µM
- TGI (KM12 colon): > 100 µM
- TGI (NCI-H226 lung): > 100 µM
- TGI (CAKI-1 renal): > 100 µM
- TGI (M14 melanoma): > 100 µM
- TGI (SW-620 colon): > 100 µM
- TGI (RXF-631 renal): > 100 µM
- TGI (RPMI-8226 leukemia): > 100 µM
- TGI (SK-MEL-2 melanoma): > 100 µM
- TGI (U251 CNS): > 100 µM
- TGI (SNB-19 CNS): > 100 µM
- TGI (786-0 renal): > 100 µM
- TGI (MOLT-4 leukemia): > 100 µM
- TGI (HCT-15 colon): > 100 µM
- TGI (HL-60(TB) leukemia): > 100 µM
- TGI (RXF 393 renal): > 100 µM
- TGI (OVCAR-4 ovarian): > 100 µM
- TGI (SNB-75 CNS): > 100 µM
- TGI (MALME-3M melanoma): > 100 µM
- TGI (SF-268 CNS): > 100 µM
- TGI (NCI-H23 lung): > 100 µM
- TGI (IGROV1 ovarian): > 100 µM
- TGI (HT29 colon): > 100 µM
- TGI (UACC-257 melanoma): > 100 µM
- TGI (UACC-62 melanoma): > 100 µM
- TGI (DMS 273 small cell lung): > 100 µM
- TGI (M19-MEL melanoma): > 100 µM

SMILES: CN(C)CCCNc1ccnc2c([N+](=O)[O-])cccc12
- TGI (UO-31 renal): > 100 µM
- TGI (XF 498 CNS): 28.2 µM
- TGI (HCC-2998 colon): 27.1 µM
- TGI (SNB-78 CNS): > 100 µM
- TGI (HCT-116 colon): 39.1 µM
- TGI (EKVX NSCLC): 36 µM
- TGI (CCRF-CEM leukemia): 96 µM
- TGI (SN12C renal): 28.8 µM
- TGI (KM20L2 colon): 16.7 µM
- TGI (SF-295 CNS): 42.2 µM
- TGI (TK-10 renal): > 100 µM
- TGI (NCI-H522 lung): 38.2 µM
- TGI (COLO 205 colon): 5.34 µM
- TGI (NCI-H460 lung): 39.2 µM
- TGI (SR leukemia): 96.4 µM
- TGI (DMS 114 small cell lung): 5.56 µM
- TGI (OVCAR-8 ovarian): 61.6 µM
- TGI (LOX IMVI melanoma): 39 µM
- TGI (OVCAR-3 ovarian): > 100 µM
- TGI (ACHN renal): > 100 µM
- TGI (SK-MEL-28 melanoma): > 100 µM
- TGI (A549 NSCLC): 75.5 µM
- TGI (HOP-62 NSCLC): 82.5 µM
- TGI (SF-539 CNS): 44.5 µM
- TGI (KM12 colon): > 100 µM
- TGI (NCI-H226 lung): > 100 µM
- TGI (CAKI-1 renal): > 100 µM
- TGI (M14 melanoma): > 100 µM
- TGI (SW-620 colon): 37.1 µM
- TGI (RPMI-8226 leukemia): 69.4 µM
- TGI (U251 CNS): > 100 µM
- TGI (SNB-19 CNS): 54.5 µM
- TGI (786-0 renal): > 100 µM
- TGI (MOLT-4 leukemia): 66.7 µM
- TGI (HCT-15 colon): 43.7 µM
- TGI (OVCAR-4 ovarian): 28.5 µM
- TGI (MALME-3M melanoma): 8.61 µM
- TGI (SF-268 CNS): 67.4 µM
- TGI (NCI-H23 lung): 31.3 µM
- TGI (HT29 colon): 12.1 µM
- TGI (UACC-257 melanoma): 30.9 µM
- TGI (DMS 273 small cell lung): 32.8 µM
- TGI (M19-MEL melanoma): 5.82 µM

From PubChem BioAssay (NCI)
